Results on 14 molecules are retold here after ChEMBL document CHEMBL5550125, “Molecular basis of N-glycan recognition by pradimicin a and its potential as a SARS-CoV-2 entry inhibitor” (Bioorg Med Chem, 2024).

Data set [1] is described as follows: Induction of Pradimicin-FA1 aggregation assessed as concentration required to induce 50% aggregation incubated for 15 mins and further incubated for 30 mins at room temperature by RP-HPLC analysis.
The nature of data set [2]: Binding affinity to Pradimicin A assessed as suppression of pradimicin A induced growth inhibition of Candida rugosa AJ14513 by measuring minimum antagonistic concentration measured after 48 hrs by visual analysis.
Data set [3] is described as follows: Binding affinity to Pradimicin A assessed as pradimicin A/Ca2+/compound ternary complex formation by measuring molar ratio at 50 umol incubated at 60 degreeC for 15 mins and room temperature for 1 hr in presence of CaCl2 and further incubated at 4 degreeC for 1 hr by coprecipitation based 1H-NMR analysis. The note with it: dose 50.0 µmol, time 2.25 hrs.
For data set [4], the system named is Calu-3. Briefly: Cytotoxicity against human Calu-3 cells infected with SARS-CoV-2 JPN/NGS/SC-1/2020 assessed as reduction in cell viability at 0.3 to 100 uM pretreated with cells for 1 hr followed by viral infection and measured after 3 days. It is filed as toxicity, cell-based. The conditions noted are these: calu-3, 73 h, dose 0.3-100 µM.
Data set [5] relates to Diutina rugosa. Briefly: Antifungal activity against Candida rugosa AJ14513 assessed as inhibition of fungal growth at 32 ug/ml measured after 48 hrs by visual analysis relative to control. The class given is functional.
The subject of data set [6] is SARS-CoV-2. Put plainly: Antiviral activity against SARS-CoV-2 JPN/NGS/SC-1/2020 infected in human Calu-3 cells assessed as inhibition of viral infection pretreated with cells for 1 hr followed by viral infection and measured after 3 days by immunofluorescence analysis. The class given is functional, organism-based. The conditions noted are these: Severe acute respiratory syndrome coronavirus 2, JPN/NGS/SC-1/2020, Calu-3.

Data set [7] relates to SARS-CoV-2. Put plainly: Antiviral activity against SARS-CoV-2 JPN/NGS/SC-1/2020 infected in human Calu-3 cells assessed as inhibition of viral infection at 6.25 uM pretreated with cells for 1 hr followed by viral infection and measured after 3 days by immunofluorescence analysis relative to control. The class given is functional, Severe acute respiratory syndrome coronavirus 2. More on the design: scale not given: the % may be the effect or the level left. The conditions noted are these: time 73 hrs.

For data set [8], the system named is SARS-CoV-2. Briefly: Antiviral activity against SARS-CoV-2 JPN/NGS/SC-1/2020 infected in human Calu-3 cells assessed as inhibition of viral infection at 6.25 uM pretreated with cells for 1 hr in presence of (2S,3S,4S,5R,6R)-4-(((2S,3R,4S,5S,6R)-3,4,5-trihydroxy-6-(hydroxymethyl)tetrahydro-2H-pyran-2-yl)oxy)-6-((((2S,3S,4S,5S,6R)-3,4,5-trihydroxy-6-(hydroxymethyl)tetrahydro-2H-pyran-2-yl)oxy)methyl)tetrahydro-2H-pyran-2,3,5-triol followed by viral infection and measured after 3 days by immunofluorescence analysis. It is filed as functional, organism-based. The note with it: Severe acute respiratory syndrome coronavirus 2, time 73.0 hrs.

SMILES strings stand for the structures. Activity calls are given as the source filed them. The rule behind the calls is not given here.

Take `CO[C@H]1O[C@H](CO[C@H]2O[C@H](CO)[C@@H](O)[C@H](O)[C@@H]2O)[C@@H](O)[C@H](O[C@@H]2O[C@H](CO)[C@@H](O)[C@H](O)[C@H]2O)[C@@H]1O`: in data set [1], the AC50 is > 10 mM. For the same molecule, the MAC in data set [2] was found to be 16 mM.

In the case of `CO[C@@H]1O[C@H](CO[C@]2(C(=O)O)C[C@H](O)[C@@H](NC(C)=O)[C@H]([C@@H](O)[C@H](O)CO)O2)[C@H](O)[C@H](O)[C@H]1O`, the AC50 in data set [1] is > 10 mM. Further, the MAC in data set [2] is > 64 mM.

`OC[C@H]1O[C@H](OC[C@H]2O[C@H](O)[C@@H](O)[C@@H](O[C@@H]3O[C@H](CO)[C@@H](O)[C@H](O)[C@H]3O)[C@@H]2O)[C@@H](O)[C@@H](O)[C@@H]1O`: in data set [3], the Ratio is 0.52. In data set [1], the AC50 worked out at 0.06 mM. Further, the MAC in data set [2] was found to be 1 mM.

Consider `CN[C@@H]1[C@H](O[C@@H]2OC[C@@H](O)[C@H](O)[C@H]2O)[C@@H](O)[C@H](O[C@H]2c3cc(C)c(C(=O)N[C@H](C)C(=O)O)c(O)c3-c3c(cc4c(c3O)C(=O)c3cc(OC)cc(O)c3C4=O)[C@@H]2O)O[C@@H]1C` [PRADIMICIN A], for which the Activity result in data set [4] is given as “Non-Toxic”; in data set [7] it was ~100%. Moreover, the inhibition at 32 µg/mL in data set [5] was 100%. Further, in data set [6], the IC50 is 0.0012 mM. Also, the result in data set [8] was inactive.

Take `CO[C@H]1O[C@H](CO)[C@@H](O)[C@H](O)[C@@H]1O[C@H]1O[C@H](CO)[C@@H](O)[C@H](O)[C@@H]1O`: the AC50 in data set [1] was > 10 mM. Moreover, in data set [2], the MAC was determined as 16 mM.

With `CO[C@H]1O[C@H](CO[C@H]2O[C@H](CO)[C@@H](O)[C@H](O)[C@H]2O)[C@@H](O)[C@H](O[C@@H]2O[C@H](CO)[C@@H](O)[C@H](O)[C@H]2O)[C@@H]1O`, the AC50 in data set [1] was > 10 mM. In addition, the MAC in data set [2] stood at 16 mM.

Regarding `CO[C@H]1O[C@H](CO[C@H]2O[C@H](CO)[C@@H](O)[C@H](O)[C@@H]2O[C@H]2O[C@H](CO)[C@@H](O)[C@H](O)[C@@H]2O)[C@@H](O)[C@H](O[C@H]2O[C@H](CO)[C@H](O)[C@@H](O)[C@@H]2O[C@@H]2O[C@H](CO)[C@@H](O)[C@H](O)[C@H]2O)[C@@H]1O`, the AC50 in data set [1] came out at 0.07 mM. The MAC in data set [2] was determined as 1 mM.

In the case of `CO[C@H]1O[C@H](CO)[C@@H](O)[C@H](O)[C@@H]1O[C@@H]1O[C@H](CO)[C@@H](O)[C@H](O)[C@@H]1NC(C)=O`, in data set [1], the AC50 is > 10 mM. Besides, the MAC in data set [2] was > 64 mM.

On to `CO[C@H]1O[C@H](CO)[C@@H](O)[C@H](O)[C@H]1O`, for which the Ratio in data set [3] stood at 0.05.

Consider `CO[C@H]1O[C@H](CO)[C@@H](O[C@@H]2O[C@H](CO)[C@H](OC)[C@H](O)[C@H]2NC(C)=O)[C@H](O)[C@@H]1NC(C)=O`, for which the AC50 in data set [1] is > 10 mM. The MAC in data set [2] was > 64 mM.

In the case of `CO[C@H]1O[C@H](CO)[C@@H](O[C@@H]2O[C@H](CO)[C@H](O)[C@H](O)[C@H]2O)[C@H](O)[C@@H]1NC(C)=O`, the AC50 in data set [1] is > 10 mM. Also, the MAC in data set [2] was > 64 mM.

For the molecule `CO[C@H]1O[C@H](CO[C@H]2O[C@H](CO)[C@@H](O)[C@H](O)[C@@H]2OC)[C@@H](O)[C@H](O[C@@H]2O[C@H](CO)[C@@H](O)[C@H](O)[C@H]2OC)[C@@H]1O`, the AC50 in data set [1] was > 10 mM. Moreover, in data set [2], the MAC is > 64 mM.

Take `CO[C@H]1O[C@H](CO)[C@@H](O)[C@H](O)[C@@H]1O`: in data set [3], the Ratio amounted to 0.96. The AC50 in data set [1] is 5 mM. Also, in data set [2], the MAC turned out to be 16 mM.

Regarding `CO[C@H]1O[C@H](CO)[C@@H](O)[C@H](O)[C@@H]1O[C@@H]1O[C@H](CO)[C@@H](OC)[C@H](O)[C@@H]1NC(C)=O`, in data set [1], the AC50 was > 10 mM. Also, in data set [2], the MAC is > 64 mM.
